# In patent publication US20200181101A1, “BENZAMIDE INHIBITORS OF BACTERIAL LIPOPROTEIN SIGNAL PEPTIDASE” (The Scripps Research Institute, priority 2017, published 2020):
# “Also recorded” adds a separate entry of the source. Read-outs that look alike come from different tables or passages of the source. Square brackets hold non-standard residues; d marks the D form. Peptide text beside a SMILES is read from it. * marks the point of attachment. Sta = CC(C)C[C@H](N)[C@@H](O)CC(=O)O; Isovaleryl = CC(C)CC(=O)*
# Legend:
# E. coli (ATCC25922) = experiment: Bacteria growth assay, E. coli ATCC25922; type: cell-based
# Experimental: (§1) Effect of compounds on bacterial growth was measured using the method described previously with slight modifications^[1]. Colony suspension method was used to prepare bacteria suspension using McFarland Standard 0.5 to adjust the turbidity. Cells were introduced to two-fold serial dilutions of compound in a final volume of 105 μL with 5% DMSO. Mueller-Hinton broth (MH) or LB broth was used for E. coli ATCC25922 or E. coli DW37 and YX23, respectively. Plates were incubated at 37° C., and the OD600 was measured using a PerkinElmer EnVision plate reader after gentle shaking. Mutant E. coli (DW37 and YX23) were previously described.^[2] Globomycin was used as a positive control and the concentration-response curves of globomycin on bacteria growth (E. coli ATCC25922) is shown below (error bar: SD).
# Lsp from E. coli = target: T1, Lsp from E. coli (Escherichia coli, UniProt P00804); experiment: Lsp FRET activity assay, IC50 determination; type: biochemical
# T1 construct: The full-length Lsp clone from E. coli (residues 1-164); His6 with enterokinase cleavage site (pET19b) (N); made in house; host or cells: E. coli Lemo21 (DE3), pET19b vector
# T1 sequence (P00804 whole entry, the tested form may be a part): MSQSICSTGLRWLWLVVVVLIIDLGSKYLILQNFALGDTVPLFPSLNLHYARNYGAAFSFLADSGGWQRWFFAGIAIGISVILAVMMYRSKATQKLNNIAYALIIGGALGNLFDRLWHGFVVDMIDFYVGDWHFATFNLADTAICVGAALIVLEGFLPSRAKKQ
# Experimental: […] […] 50 μM Lsp FRET substrate was subsequently added and the rate of substrate hydrolysis was measured by increase in fluorescence (excitation 355 nm, emission 495 nm) in 96-well plates on a PerkinElmer EnVision plate reader or Tecan Safire 2 microplate reader. Michaelis-Menten constants and […] were determined using GraphPad Prism software (GraphPad, Inc.).
# E. coli DW37 = experiment: Bacteria growth assay, isogenic parent strain DW37; type: cell-based; parameters: dose or concentration left out as unconfirmed; conditions: OD600 at 10 h
# Experimental: as §1
# E. coli YX23 [1] = experiment: Bacteria growth assay, Lsp-inhibition resistant mutant YX23; type: cell-based; parameters: dose or concentration left out as unconfirmed; conditions: OD600 at 24 h
# Experimental: as §1
# E. coli YX23 [2] = conditions: literature [14]; cited from earlier work
# [3] = FRET-based assay, [Lsp] = 400 nM, mean (± SD), read-out: IC50
# [4] = Table 5, [Lsp] = 20 nM, read-out: IC50
# [5] = Table 5, E = 100 nM, read-out: IC50
# [6] = Table 7, linker variation, E = 100 nM, read-out: IC50
# [7] = Table 2, variation of R3, read-out: IC50
compound,measurement,setting,value
"COc1cc(C(=O)Nc2nnc(C3CCCCC3)s2)c([N+](=O)[O-])cc1OC [1c, N-(5-cyclohexyl-1,3,4-thiadiazol-2-yl)-4,5-dimethoxy-2-nitrobenzamide]","bacterial growth, in words",E. coli (ATCC25922); in combination with PMBN 8 mg/L,did not inhibit the bacterial growth
same,"potency against Lsp, in words (SAR)",Lsp from E. coli,ablated the potency
same,IC50,Lsp from E. coli; [3],> 400 µM
"CCC(CC)c1nnc(NC(=O)c2cc(OC)c(OC3CCCC3)cc2[N+](=O)[O-])s1 [1j, 4-(cyclopentyloxy)-5-methoxy-2-nitro-N-(5-(pentan-3-yl)-1,3,4-thiadiazol-2-yl)benzamide]","bacterial growth, in words",E. coli (ATCC25922); cultures of E. coli,inhibits bacterial growth
same,effect on cleaved substrate fluorescence,Lsp from E. coli,no effect
same,Hill constant,"Lsp from E. coli; [S]=50 μM, [Lsp]=100 nM",approximately 1
same,IC50,Lsp from E. coli; read-out: IC50,0.099 µM
same,growth of DW37,E. coli DW37,inhibited the growth
same,growth of YX23,E. coli YX23 [1],resistant; also recorded: did not inhibit the growth
"CCCCCCC1OC(=O)CNC(=O)C(C(C)O)NC(=O)C(CO)NC(=O)C(C(C)CC)NC(=O)C(CC(C)C)N(C)C(=O)C1C (stereo not shown) [Globomycin, globomycin]",resistance of YX23,E. coli YX23 [2],resistant
CCC(CC)c1nnc(NC(=O)c2ccccc2C(=O)OC)s1 [Sk056-13-2],IC50,"Lsp from E. coli; Table 4, read-out: IC50",12 µM
O=C(Nc1nnc(CCCCCCl)s1)c1cc(Cl)c(OC2CCCC2)cc1[N+](=O)[O-] [Sk056-15],IC50,"Lsp from E. coli; Table 6, read-out: IC50",3.8 µM
CCC(CC)c1nnc(NC(=O)c2cc(Cl)c(NC3CCCC3)cc2[N+](=O)[O-])s1 [Sk056-16-1],IC50,Lsp from E. coli; [4],0.17 µM
CCC(CC)c1nnc(NC(=O)c2cc(Cl)c(SC3CCCC3)cc2[N+](=O)[O-])s1 [Sk056-22-1],IC50,Lsp from E. coli; [4],0.02 µM
CCC(CC)c1nnc(NC(=O)c2cc(Cl)c(Oc3ccccc3)cc2[N+](=O)[O-])s1 [Sk056-22-2],IC50,Lsp from E. coli; [4],0.19 µM
CCC(CC)c1nnc(NC(=O)c2ccccc2C(=O)O)s1 [Sk056-24],IC50,"Lsp from E. coli; Table 4, read-out: IC50",270 µM
COC(=O)CCSCCCCCc1nnc(NC(=O)c2cc(Cl)c(OC3CCCC3)cc2[N+](=O)[O-])s1 [Sk056-26],IC50,"Lsp from E. coli; Table 6, read-out: IC50",3.2 µM
O=C(O)CCSCCCCCc1nnc(NC(=O)c2cc(Cl)c(OC3CCCC3)cc2[N+](=O)[O-])s1 [Sk056-27],IC50,"Lsp from E. coli; Table 6, read-out: IC50",11 µM
CCC(CC)c1nnc(NC(=O)c2cc(Cl)c(OC3CCCCC3)cc2[N+](=O)[O-])s1 [Sk056-29],IC50,Lsp from E. coli; [4],0.068 µM
CCC(CC)c1nnc(NC(=O)c2ccc(OS(=O)(=O)F)cc2[N+](=O)[O-])s1 [Sk056-45-1],IC50,Lsp from E. coli,46 µM
CCC(CC)c1nnc(NC(=O)c2ccc(NCCS(=O)(=O)F)cc2[N+](=O)[O-])s1 [Sk056-45-3],IC50,Lsp from E. coli,19 µM
CCC(CC)c1nnc(NC(=O)c2ccc(OS(=O)(=O)F)cc2O)s1 [Sk056-50-4],IC50,Lsp from E. coli,290 µM
CCC(CC)c1nnc(NC(=O)c2ccccc2CC(=O)OC)s1 [Sk056-82-1],IC50,"Lsp from E. coli; Table 4, read-out: IC50",21 µM
CCC(CC)c1nnc(NC(=O)c2c(Cl)cccc2[N+](=O)[O-])s1 [Sk056-82-2],IC50,"Lsp from E. coli; Table 4, read-out: IC50",260 µM
COc1cc(C(=O)Nc2ccc(C(C)C)cn2)c([N+](=O)[O-])cc1OC [Sk056-82-3],IC50,"Lsp from E. coli; Table 3, read-out: IC50",> 400 µM
COc1cc(C(=O)Nc2ccc(C(C)C)nc2)c([N+](=O)[O-])cc1OC [Sk056-82-4],IC50,"Lsp from E. coli; Table 3, read-out: IC50",> 400 µM
CCC(CC)c1nnc(NC(=O)c2cc(Cl)c(Oc3ccc(NC(=O)OC(C)(C)C)cc3)cc2[N+](=O)[O-])s1 [Sk061-29],IC50,Lsp from E. coli; [5],0.64 µM
same,IC50,Lsp from E. coli; [6],0.64 µM
CCC(CC)c1nnc(NC(=O)c2cc(Cl)c(Oc3ccc(O)cc3)cc2[N+](=O)[O-])s1 [Sk061-30-1],IC50,Lsp from E. coli; [5],> 4 µM
CCC(CC)c1nnc(NC(=O)c2cc(Cl)c(OC3CCC(C)(C)CC3)cc2[N+](=O)[O-])s1 [Sk061-31-1],IC50,Lsp from E. coli; [5],0.23 µM
CCC(CC)c1nnc(NC(=O)c2cc(Cl)c(OC3CCC(F)(F)CC3)cc2[N+](=O)[O-])s1 [Sk061-31-2],IC50,Lsp from E. coli; [5],0.58 µM
CCC(CC)c1nnc(NC(=O)c2cc(Cl)c(Oc3ccc(N)cc3)cc2[N+](=O)[O-])s1 [Sk061-32],IC50,Lsp from E. coli; [5],~4 µM
CCC(CC)c1nnc(NC(=O)c2cc(Cl)c(OCCCCCCN)cc2[N+](=O)[O-])s1 [Sk061-45],IC50,Lsp from E. coli; [5],> 4 µM
CCC(CC)c1nnc(NC(=O)c2cc(Cl)c(OCCCCCCNC(=O)OC(C)(C)C)cc2[N+](=O)[O-])s1 [Sk061-54],IC50,Lsp from E. coli; [5],~2.3 µM
same,IC50,Lsp from E. coli; [6],2.3 µM
CCC(CC)c1nnc(NC(=O)c2cc(Cl)c(OCCNC(=O)OC(C)(C)C)cc2[N+](=O)[O-])s1 [Sk061-68],IC50,Lsp from E. coli; [6],0.21 µM
COc1cc(C(=O)Nc2nnc(C(C)C)s2)c([N+](=O)[O-])cc1OC [Sk061-69-1],IC50,Lsp from E. coli; [7],44 µM
same,IC50,"Lsp from E. coli; Table 3, read-out: IC50",44 µM
CCC(C)c1nnc(NC(=O)c2cc(OC)c(OC)cc2[N+](=O)[O-])s1 (stereo not shown) [Sk061-69-2],IC50,Lsp from E. coli; [7],8.7 µM
COc1cc(C(=O)Nc2nnc(C(C)(C)C)s2)c([N+](=O)[O-])cc1OC [Sk061-69-3],IC50,Lsp from E. coli; [7],36 µM
CCCCC(CC)c1nnc(NC(=O)c2cc(OC)c(OC)cc2[N+](=O)[O-])s1 (stereo not shown) [Sk061-69-4],IC50,Lsp from E. coli; [7],2.5 µM
CCC(CC)c1nnc(NC(=O)c2cc(Cl)c(OCCCNC(=O)OC(C)(C)C)cc2[N+](=O)[O-])s1 [Sk061-80-1],IC50,Lsp from E. coli; [6],1.7 µM
CCC(CC)c1nnc(NC(=O)c2cc(Cl)c(OCCCCNC(=O)OC(C)(C)C)cc2[N+](=O)[O-])s1 [Sk061-80-2],IC50,Lsp from E. coli; [6],1.6 µM
CCC(CC)c1nnc(NC(=O)c2cc(Cl)c(OC3CCN(C(=O)OC(C)(C)C)CC3)cc2[N+](=O)[O-])s1 [Sk061-80-4],IC50,Lsp from E. coli; [6],1.1 µM
CCC(CC)c1nnc(NC(=O)c2cc(Cl)c(OC3CCCN(C(=O)OC(C)(C)C)C3)cc2[N+](=O)[O-])s1 (stereo not shown) [Sk061-80-5],IC50,Lsp from E. coli; [6],0.83 µM
CCC(CC)c1nnc(NC(=O)c2ccc(C(F)(F)F)cc2[N+](=O)[O-])s1 [Z123635394],IC50,"Lsp from E. coli; Table 4, read-out: IC50",9.3 µM
"COCCCOc1cc(C[C@@H](C[C@H](N)[C@@H](O)C[C@H](C(=O)NCC(C)(C)C(N)=O)C(C)C)C(C)C)ccc1OC [aliskiren, reference compound]",inhibition of E. coli Lsp by known aspartic acid protease inhibitors,Lsp from E. coli,no known aspartic acid protease inhibitors
"COC(=O)N[C@H](C(=O)N[C@@H](Cc1ccccc1)[C@@H](O)CN(Cc1ccc(-c2ccccn2)cc1)NC(=O)[C@@H](NC(=O)OC)C(C)(C)C)C(C)(C)C [atazaniavir, reference compound]",inhibition of E. coli Lsp by known aspartic acid protease inhibitors,Lsp from E. coli,no known aspartic acid protease inhibitors
"O=S(=O)(N[C@H](CO)C(C(F)(F)F)C(F)(F)F)c1ccc(Cl)s1 [begacestat, reference compound]",inhibition of E. coli Lsp by known aspartic acid protease inhibitors,Lsp from E. coli,no known aspartic acid protease inhibitors
CCCC1OC(=O)C(C)CC(C)CCCCC(=O)CCCC(CC)/C=C/C=C(\COC)CCC(O)C(O)CC(O)CNC1=O (stereo not shown) [myxovirescin],resistance of YX23,E. coli YX23 [2],resistant
"CC(C)CC(=O)N[C@H](C(=O)N[C@H](C(=O)N[C@@H](CC(C)C)[C@@H](O)CC(=O)N[C@@H](C)C(=O)N[C@@H](CC(C)C)[C@@H](O)CC(=O)O)C(C)C)C(C)C [pepstatin, reference compound] (Isovaleryl-VV[Sta]A[Sta]-OH)",inhibition of E. coli Lsp by known aspartic acid protease inhibitors,Lsp from E. coli,no known aspartic acid protease inhibitors
"CC(C)(C)NC(=O)[C@@H]1C[C@@H]2CCCC[C@@H]2CN1C[C@@H](O)[C@H](Cc1ccccc1)NC(=O)[C@H](CC(N)=O)NC(=O)c1ccc2ccccc2n1 [saquinavir, reference compound]",inhibition of E. coli Lsp by known aspartic acid protease inhibitors,Lsp from E. coli,no known aspartic acid protease inhibitors
"CC(C)[C@H](O)C(=O)N[C@@H](C)C(=O)N[C@@H]1C(=O)N(C)CCc2ccccc21 [semagacestat, reference compound]",inhibition of E. coli Lsp by known aspartic acid protease inhibitors,Lsp from E. coli,no known aspartic acid protease inhibitors
"N-(5-buty-1,3,4-oxadiazol-2-yl)-4,5-dimethoxy-2-nitrobenzamide [1e]","potency against Lsp, in words (SAR)",Lsp from E. coli,inactive
same,IC50,Lsp from E. coli; [3],> 400 µM
